Bounds are passed on as bounds.

The values below come from US20240207265A1, “TREATMENT OF CNS DISEASES WITH sGC STIMULATORS” (Tisento Therapeutics Inc., priority 2021, published 2024).

In one experiment the target is T1, human α2β1 sGC isozyme (Homo sapiens, UniProt P33402+Q02153).
T1 construct: host or cells: CHO-K1
T1 sequence (P33402 1-732): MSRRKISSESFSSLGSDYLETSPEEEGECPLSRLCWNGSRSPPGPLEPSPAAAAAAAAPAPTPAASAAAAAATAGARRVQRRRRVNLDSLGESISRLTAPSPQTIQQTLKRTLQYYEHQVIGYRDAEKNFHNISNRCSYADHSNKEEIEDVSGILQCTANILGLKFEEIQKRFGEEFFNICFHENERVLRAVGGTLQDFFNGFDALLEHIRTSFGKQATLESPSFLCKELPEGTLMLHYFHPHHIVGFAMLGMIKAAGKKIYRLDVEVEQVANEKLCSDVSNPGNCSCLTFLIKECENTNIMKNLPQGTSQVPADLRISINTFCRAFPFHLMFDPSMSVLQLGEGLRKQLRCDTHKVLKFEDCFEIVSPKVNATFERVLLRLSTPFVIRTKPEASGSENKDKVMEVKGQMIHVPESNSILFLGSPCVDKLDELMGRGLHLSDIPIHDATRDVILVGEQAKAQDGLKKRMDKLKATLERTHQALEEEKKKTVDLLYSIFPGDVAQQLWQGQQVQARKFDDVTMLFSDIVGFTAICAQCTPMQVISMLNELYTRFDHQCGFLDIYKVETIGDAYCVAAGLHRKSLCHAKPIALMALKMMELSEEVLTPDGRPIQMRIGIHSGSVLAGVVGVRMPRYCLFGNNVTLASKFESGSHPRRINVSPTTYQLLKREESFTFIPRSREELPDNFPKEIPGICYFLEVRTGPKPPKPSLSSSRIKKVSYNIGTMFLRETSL
T1 sequence (Q02153 1-619): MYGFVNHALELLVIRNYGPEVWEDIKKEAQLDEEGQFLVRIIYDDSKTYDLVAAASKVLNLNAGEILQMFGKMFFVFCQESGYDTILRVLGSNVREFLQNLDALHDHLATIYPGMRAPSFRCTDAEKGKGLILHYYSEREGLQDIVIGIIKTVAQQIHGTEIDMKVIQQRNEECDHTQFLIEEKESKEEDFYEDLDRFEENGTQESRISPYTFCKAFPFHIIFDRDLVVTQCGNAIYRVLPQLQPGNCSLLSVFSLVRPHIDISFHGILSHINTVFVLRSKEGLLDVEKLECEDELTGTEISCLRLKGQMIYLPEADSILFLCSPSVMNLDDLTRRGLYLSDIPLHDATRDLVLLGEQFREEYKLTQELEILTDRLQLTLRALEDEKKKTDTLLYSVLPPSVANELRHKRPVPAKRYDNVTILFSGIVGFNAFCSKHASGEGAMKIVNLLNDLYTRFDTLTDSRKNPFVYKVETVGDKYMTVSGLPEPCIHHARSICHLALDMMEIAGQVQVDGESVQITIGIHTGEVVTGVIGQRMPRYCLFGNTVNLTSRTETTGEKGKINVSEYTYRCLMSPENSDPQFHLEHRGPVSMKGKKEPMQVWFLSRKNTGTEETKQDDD
The experiment is described as follows: cGMP assay in CHO-K1 cells stably expressing human α2β1 sGC isozyme. In kind it is cell-based. Conditions: 10 μM DETA-NONOate. Here is the method: sGC stimulators were dissolved in DMSO as a 10 mM solution and stored at −20° C. To achieve desired test concentrations, stock concentrations were serially diluted into DMSO and then diluted to the appropriate concentration in assay buffer.
CHO-K1 cells stably transfected with human α2β1 sGC isozyme (generated by GenScript for Ironwood) were cultured in F-12K medium (ATCC catalog #30-2004) with 10% fetal calf serum, 4 μg/mL puromycin (Gibco catalog #A11138-03) and 0.4 mg/mL of geneticin (Gibco catalog #10131-027) in a 95% humidified atmosphere containing 5% CO2 in air at 37° C. For GC activity assays, cells were seeded in 384 well poly-D-lysine coated flat bottom plates (Fisher Scientific #08-774-311) in either 50 μL or 70 μL medium at a density of either 3×10^4 cells/well or 15×10^3, respectively. Cells were incubated for 24 hours at 37° C. in a humidified chamber supplemented with 5% CO2.
For each test concentration, the compound was diluted in 100% DMSO to 100-fold of its final assay concentration. Immediately prior to the assay, the solution was diluted 20-fold into HBSS containing calcium, magnesium, and 50 μM DETA-NONOate (5× the final assay concentration). Medium was removed and cells were washed once with 40 μL of HBSS. Cells were then incubated with 40 μL of a solution containing 0.5 mM IBMX in HBSS for 15 min at 37° C. 10 μL from the sGC stimulator/HBSS/DETA-NONOate plate was added to the cells, which were incubated for an additional 20 min at 37° C. Final DMSO concentration was 1%, final DETA-NONOate concentration was 10 μM; and final compound concentrations were 30,000 nM, 6000 nM, 1200 nM, 240 nM, 48 nM, 9.6 nM, 1.92 nM, 0.384 nM, 0.077 nM, 0.015 nM, or 0.003 nM.
Following incubation with compound, assay buffer was removed and 50 μL of ice-cold 10% acetic acid+150 ng/mL internal standard (+3 cGMP) was added to each well. Samples were incubated on ice for 30-60 min. Following centrifugation at 4° C. for 5 min at 1000×g to pellet cell debris, the supernatant was transferred to a clean plate and the samples analyzed for cGMP content.
Data were analyzed with a 4-parameter fit (log(agonist) vs. response-variable slope) using GraphPad Prism Software v.8. The EC50 was interpolated from the curve fit and is defined as the concentration at which the compound elicits 50% of its maximal response. When the experiment was carried out multiple times for a given compound, the geometrical mean of all experiments is reported.

Another experiment has as its system sGC enzyme. Briefly: cGMP GloSensor cell-based assay, 384-well format (HEK293). Further details: species or system human. To be noted: HEK293 GloSensor 40F cGMP cells, 10 μM DETA-NONOate, geometrical mean; read-out: Glo EC50. The text has this:
Human embryonic kidney cells (HEK293) cells expressing GloSensor™ 40F cGMP (Part No: CS182801, Promega) were used to evaluate the activity of test compounds. The luminescent biosensors (engineered luciferase) that were incorporated into these cells detect cGMP formed by the compounds stimulating the sGC enzyme and emit luminescence.
cGMP GloSensor cells were maintained in Dulbecco's Modification of Eagle's Medium (DMEM) supplemented with fetal bovine serum (FBS, 10% final) and hygromycine (200 ug/ml). The day before assay, cells were plated in DMEM with 10% FBS in a 50 μL volume at a density of 1.5×10^4 cells/well in a poly-D-lysine coated 384-well flat white-bottom plate (Corning Cat No 35661). Cells were incubated overnight at 37° C. in a humidified chamber with 5% CO2. The next day, medium was removed and cells were replaced with 40 ul/well of GloSensor™, 2 mM (Promega Cat No E1291). Cells were treated for 90 minutes at 25° C. to allow the substrate to equilibrate in the cells. Test compounds and Diethylenetriamine NONOate (DETA-NONOate) was diluted to 3 mM (20×) in serum-free CO2 independent medium and serially diluted at 4× dilutions to create 5× dose curve from which 10 ul was added to the wells (x μM concentration for test compound solution and 10 μM concentration for DETA-NONOate solution; wherein x is one of the following final concentrations: 30 μM, 7.5 μM, 1.9 μM, 469 nM, 117 nM, 29.3 nM, 7.3 nM, 1.83 nM, 0.46 nM, 0.11 nM, 0.03 nM) For the kinetics studies, luminescense was measured right away for 0.2 sec per well with Envision (Perkin Elmer). For endpoint SAR screening, data were collected after 55 min incubation at room temperature.
Concentration response data were analyzed using a 4-parameter fit (log (agonist) vs. response-variable slope). The EC50 was interpolated from the curve fit and is defined as the concentration at which the compound elicits 50% of its maximal response. When the experiment was carried out multiple times for a given compound, the geometrical mean of all experiments is reported.

By EC50 is commonly meant the concentration at which the effect is half-maximal. Turning to `Cc1cc(F)c(Cc2nc(-c3ncc(Cl)c(O)n3)cn3ccnc23)cc1F` [Compound I-17, 5-Chloro-2-(8-(2,5-difluoro-4-methylbenzyl)imidazo[1,2-a]pyrazin-6-yl)pyrimidin-4-ol], the EC50 on human α2β1 sGC isozyme and in the experiment with sGC enzyme was at most 100 nM in each case.
